# Experimental data reported in patent US7902181B2, “Compounds 010” (AstraZeneca AB, priority 2007, dated 2011).
# Structures can show the parent of a compound that is named as a salt.
# Target: Recombinant Human (rh) DPP1 (Homo sapiens, UniProt P53634)
# Assay: Fluorescence Assay for Recombinant Human (rh) DPP1
# Assay type: biochemical
# Details: rhDPP1; substrate H-Gly-Arg-AMC; pH5.0; 30 min pre-incubation, 60 min reaction at 22° C.; highest concentration 10 μM; read-out: DPP1 activity, pIC50 (converted)
# Protocol: Fluorescence Assay for Recombinant Human (rh) DPP1
# The activity of DPP1 was determined by measuring the enzymatic release of aminomethyl coumarin (AMC) from the peptide substrate (H-Gly-Arg-AMC), which leads to an increase in fluorescence intensity at λex=350 nm and λem=450 nm. The assay was carried out in black 384 well plates in a final volume of 50 μl at 22° C. The assay conditions contained the following: 25 mM piperazine buffer pH5.0; 50 mM NaCl, 5 mM DTT; 0.01% (v/v) Triton X-100; 100 μM H-Gly-Arg-AMC and rhDPP1 ([…]). Potential inhibitors were made up in DMSO and then diluted in the assay to give a final concentration of 1% (v/v) DMSO. A 12-point half-log dilution of the inhibitors (highest concentration 10 μM) was tested and the pIC50 determined using a 4-parameter logistic equation in a non-linear curve fitting routine. A standard DPP1 inhibitor (vinyl sulfone, see below) was used as a positive control in the assay. Routinely, inhibitors were pre-incubated with rhDPP1 for 30 min prior to the addition of the peptide substrate to start the reaction for a further 60 min at 22° C. After that the plates were immediately read in a fluorescence plate reader using the above emission and excitation wavelengths [modified from Kam, C M, Gotz, M G, Koot, G, McGuire, M J, Thiele, D L, Hudig, D & Powers, J C (2004). Arch Biochem Biophys, 427, 123-134 & McGuire, M J, Lipsky, P E & Thiele, D L (1992). Arch Biochem Biophys, 295, 280-288].
# Sequence of Recombinant Human (rh) DPP1 (P53634 25-463): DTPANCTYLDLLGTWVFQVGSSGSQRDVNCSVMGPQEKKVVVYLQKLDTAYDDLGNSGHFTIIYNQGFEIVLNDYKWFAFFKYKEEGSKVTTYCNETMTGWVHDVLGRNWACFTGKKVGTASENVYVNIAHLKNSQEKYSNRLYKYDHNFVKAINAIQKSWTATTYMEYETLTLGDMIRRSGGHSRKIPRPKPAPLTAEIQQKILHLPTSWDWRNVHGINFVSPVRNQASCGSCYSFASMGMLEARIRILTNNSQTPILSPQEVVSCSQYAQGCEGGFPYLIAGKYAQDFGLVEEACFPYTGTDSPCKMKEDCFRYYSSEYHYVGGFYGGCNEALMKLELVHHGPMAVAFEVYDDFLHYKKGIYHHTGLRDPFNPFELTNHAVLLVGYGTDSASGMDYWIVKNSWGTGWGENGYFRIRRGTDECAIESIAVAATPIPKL
smiles,measurement,value
"COc1ncc(-c2ccc(C[C@@H](C#N)NC(=O)[C@@H]3CCCCN3)cc2)cn1 [Example 46, (2S)-N-[(1S)-1-Cyano-2-[4-(2-methoxypyrimidin-5-yl)phenyl]ethyl]piperidine-2-carboxamide trifluoroacetate]",IC50,1260 nM
"CN1CCN(c2ccc(-c3ccc(C[C@@H](C#N)NC(=O)[C@@H]4CCCCN4)cc3)cn2)CC1 [Example 47, (2S)-N-[(1S)-1-Cyano-2-[4-[6-(4-methylpiperazin-1-yl)pyridin-3-yl]phenyl]ethyl]piperidine-2-carboxamide trifluoroacetate]",IC50,1260 nM
"N#C[C@H](Cc1ccc(-c2ccccc2O)cc1)NC(=O)[C@@H]1CCCCN1 [Example 48, (2S)-N-[(1S)-1-Cyano-2-[4-(2-hydroxyphenyl)phenyl]ethyl]piperidine-2-carboxamide trifluoroacetate]",IC50,1580 nM
"N#C[C@H](Cc1ccc(-c2cccc3cccnc23)cc1)NC(=O)[C@@H]1CCCCN1 [Example 49, (2S)-N-[(1S)-1-Cyano-2-(4-quinolin-8-ylphenyl)phenyl]piperidine-2-carboxamide trifluoroacetate]",IC50,2000 nM
"Cc1ccccc1-c1ccc(C[C@@H](C#N)NC(=O)[C@@H]2CCCCN2)cc1 [Example 50, (2S)-N-[(1S)-1-Cyano-2-[4-(2-methylphenyl)phenyl]eth-yl]piperidine-2-carboxamide trifluoroacetate]",IC50,2000 nM
"N#C[C@H](Cc1ccc(-c2ccccc2OCc2ccccc2)cc1)NC(=O)[C@@H]1CCCCN1 [Example 51, (2S)-N-[(1S)-1-Cyano-2-[4-(2-phenylmethoxyphenyl)phenyl]ethyl]piperidine-2-carboxamide trifluoroacetate]",IC50,2000 nM
"Cc1ncccc1-c1ccc(C[C@@H](C#N)NC(=O)[C@@H]2CCCCN2)cc1 [Example 52, (2S)-N-[(1S)-1-Cyano-2-[4-(2-methylpyridin-3-yl)phenyl]ethyl]piperidine-2-carboxamide trifluoroacetate]",IC50,3160 nM
"N#Cc1ccc(-c2ccc(C[C@@H](C#N)NC(=O)[C@@H]3CCCCN3)cc2)cn1 [Example 53, (S)-N-((S)-1-Cyano-2-(4-(6-cyanopyridin-3-yl)phenyl)ethyl)piperidine-2-carboxamide]",IC50,31.6 nM
"N#C[C@H](Cc1ccc(-c2ccc3sc(=O)n(CCO)c3c2)cc1)NC(=O)[C@@H]1CCCCN1 [Example 54, (S)-N-((S)-1-Cyano-2-(4-(3-(2-hydroxyethyl)-2-oxo-2,3-dihydrobenzo[d]thiazol-5-yl)phenyl)ethyl)piperidine-2-carboxamide]",IC50,5.01 nM
"COCCn1c(=O)sc2ccc(-c3ccc(C[C@@H](C#N)NC(=O)[C@@H]4CCCCN4)cc3)cc21 [Example 55, (S)-N-((S)-1-cyano-2-(4-(3-(2-methoxyethyl)-2-oxo-2,3-dihydrobenzo[d]thiazol-5-yl)phenyl)ethyl)piperidine-2-carboxamide]",IC50,5.01 nM
"N#Cc1ccc(-c2ccc(C[C@@H](C#N)NC(=O)[C@@H]3CCCCN3)cc2)cc1F [Example 56, (S)-N-((S)-1-Cyano-2-(4′-cyano-3′-fluorobiphenyl-4-yl)ethyl)piperidine-2-carboxamide]",IC50,10 nM
"CSc1cc(-c2ccc(C[C@@H](C#N)NC(=O)[C@@H]3CCCCN3)cc2)ccc1C#N [Example 57, (S)-N-((S)-1-Cyano-2-(4′-cyano-3′-(methylthio)biphenyl-4-yl)ethyl)-piperidine-2-carboxamide]",IC50,3.16 nM
"CS(=O)(=O)c1cc(-c2ccc(C[C@@H](C#N)NC(=O)[C@@H]3CCCCN3)cc2)ccc1C#N [Example 58, (S)-N-((S)-1-Cyano-2-(4′-cyano-3′-(methylsulfonyl)biphenyl-4-yl)ethyl)piperidine-2-carboxamide]",IC50,15.8 nM
"CCS(=O)(=O)c1cc(-c2ccc(C[C@@H](C#N)NC(=O)[C@@H]3CCCCN3)cc2)ccc1C#N [Example 59, (S)-N-((S)-1-Cyano-2-(4′-cyano-3′-(ethylsulfonyl)biphenyl-4-yl)ethyl)piperidine-2-carboxamide]",IC50,15.8 nM
"CCCS(=O)(=O)c1cc(-c2ccc(C[C@@H](C#N)NC(=O)[C@@H]3CCCCN3)cc2)ccc1C#N [Example 60, (S)-N-((S)-1-Cyano-2-(4′-cyano-3′-(propylsulfonyl)biphenyl-4-yl)ethyl)piperidine-2-carboxamide]",IC50,20 nM
"C[S+]([O-])c1cc(-c2ccc(C[C@@H](C#N)NC(=O)[C@@H]3CCCCN3)cc2)ccc1C(N)=O (stereo partly drawn) [Example 61, (2S)-N-((1S)-2-(4′-Carbamoyl-3′-(methylsulfinyl)biphenyl-4-yl)-1-cyanoethyl)piperidine-2-carboxamide]",IC50,39.8 nM
"Cc1nccn1-c1cc(-c2ccc(C[C@@H](C#N)NC(=O)[C@@H]3CCCCN3)cc2)ccc1C#N [Example 62, (2S)-N-((1S)-1-Cyano-2-(4′-cyano-3′-(2-methyl-1H-imidazol-1-yl)biphenyl-4-yl)ethyl)piperidine-2-carboxamide]",IC50,15.8 nM
"CSc1ccc(-c2ccc(C[C@@H](C#N)NC(=O)[C@@H]3CCCCN3)cc2)cc1C#N [Example 63, (S)-N-((S)-1-cyano-2-(3′-cyano-4′-(methylthio)biphenyl-4-yl)ethyl)piperidine-2-carboxamide]",IC50,7.94 nM
"CS(=O)(=O)c1ccc(-c2ccc(C[C@@H](C#N)NC(=O)[C@@H]3CCCCN3)cc2)cc1C#N [Example 64, (S)-N-((S)-1-Cyano-2-(3′-cyano-4′-(methylsulfonyl)biphenyl-4-yl)ethyl)piperidine-2-carboxamide]",IC50,10 nM
"Cn1c(=O)sc2ccc(-c3ccc(C[C@@H](C#N)NC(=O)[C@@H]4CCCCN4)cc3)cc21 [Example 66, (S)-N-((S)-1-Cyano-2-(4-(3-methyl-2-oxo-2,3-dihydrobenzo[d]thiazol-5-yl)phenyl)ethyl) piperidine-2-carboxamide]",IC50,2 nM
"N#C[C@H](Cc1ccc(-c2ccc3c(c2)CNS3(=O)=O)cc1)NC(=O)[C@@H]1CCCCN1 [Example 67, (2S)-N-{(1S)-1-cyano-2-[4-(1,1-dioxido-2,3-dihydro-1,2-benzisothiazol-5-yl)phenyl]ethyl} piperidine-2-carboxamide]",IC50,10 nM
"N#C[C@H](Cc1ccc(-c2ccc3c(c2)SCC(=O)N3)cc1)NC(=O)[C@@H]1CCCCN1 [Example 68, (S)-N-((S)-1-Cyano-2-(4-(3-oxo-3,4-dihydro-2H-benzo[b][1,4]thia-zin-7-yl)phenyl)ethyl) piperidine-2-carboxamide]",IC50,15.8 nM
CN1Cc2cc(-c3ccc(C[C@@H](C#N)NC(=O)[C@@H]4CCCCN4)cc3)ccc2S1(=O)=O [Example 69],IC50,12.6 nM
"CCc1ccc(-c2ccc(C[C@@H](C#N)NC(=O)[C@@H]3CCCCN3)cc2)cc1 [Example 70, (S)-N-((S)-1-Cyano-2-(4′-ethylbiphenyl-4-yl)ethyl)piperidine-2-carboxamide Trifluoroacetate]",IC50,20 nM
"CNS(=O)(=O)c1ccc(-c2ccc(C[C@@H](C#N)NC(=O)[C@@H]3CCCCN3)cc2)cc1 [Example 71, (S)-N-((S)-1-Cyano-2-(4′-(N-methylsulfamoyl)biphenyl-4-yl)ethyl)piperidine-2-carboxamide Trifluoroacetate]",IC50,6.31 nM
"N#C[C@H](Cc1ccc(-c2ccc(S(=O)(=O)N3CCC3)cc2)cc1)NC(=O)[C@@H]1CCCCN1 [Example 72, (S)-N-((S)-2-(4′-(Azetidin-1-ylsulfonyl)biphenyl-4-yl)-1-cyanoethyl)piperidine-2-carboxamide Trifluoroacetate]",IC50,3.98 nM
"N#C[C@H](Cc1ccc(-c2ccc(S(=O)(=O)NCCO)cc2)cc1)NC(=O)[C@@H]1CCCCN1 [Example 73, (S)-N-((S)-1-Cyano-2-(4′-(N-(2-hydroxyethyl)sulfamoyl)biphenyl-4-yl)ethyl)piperidine-2-carboxamide]",IC50,10 nM
"CNC(=O)c1ccc(-c2ccc(C[C@@H](C#N)NC(=O)[C@@H]3CCCCN3)cc2)cc1 [Example 74, (S)-N-((S)-1-Cyano-2-(4′-(methylcarbamoyl)biphenyl-4-yl)ethyl)piperidine-2-carboxamide Trifluoroacetate]",IC50,100 nM
"N#C[C@H](Cc1ccc(-c2ccc(C(=O)N3CCCC3)cc2)cc1)NC(=O)[C@@H]1CCCCN1 [Example 75, (S)-N-((S)-1-Cyano-2-(4′-(pyrrolidine-1-carbonyl)biphenyl-4-yl)ethyl)piperidine-2-carboxamide Trifluoroacetate]",IC50,200 nM
"CN1CCN(C(=O)c2ccc(-c3ccc(C[C@@H](C#N)NC(=O)[C@@H]4CCCCN4)cc3)cc2)CC1 [Example 76, (S)-N-((S)-1-Cyano-2-(4′-(4-methylpiperazine-1-carbonyl)biphenyl-4-yl)ethyl)piperidine-2-carboxamide Trifluoroacetate]",IC50,158 nM
"N#Cc1ccc(-c2ccc(C[C@@H](C#N)NC(=O)[C@@H]3CCCCN3)cn2)cc1 [Example 77, (S)-N-((S)-1-Cyano-2-(6-(4-cyanophenyl)pyridin-3-yl)ethyl)piperidine-2-carboxamide Trifluoroacetate]",IC50,31.6 nM
